Columns and labels:
[1] = target: ASK1 (Homo sapiens (Human), UniProt Q99683); experiment: ASK1 KINOMEscan assay (biochemical Kd), competition binding; details: DNA-tagged ASK1 kinase, 11-point 3-fold dilution
Procedure: The binding of compounds to ASK1 were determined using DiscoverX's proprietary technology. […] The assay is performed by combining three components: DNA-tagged ASK1 kinase; immobilized ligand; and a test compound. The ability of the test compound to compete with the immobilized ligand is measured via quantitative PCR of the DNA tag. […] The liganded beads were blocked with excess biotin and washed with blocking buffer (SeaBlock (Pierce), 1% BSA, 0.05% Tween 20, 1 mM DTT) to remove unbound ligand and to reduce nonspecific binding. […] Kds were determined using an 11-point 3-fold compound dilution series with three DMSO control points. […] The compounds were then diluted directly into the assays such that the final concentration of DMSO was 0.9%. All reactions were performed in polypropylene 384-well plate. […] The kinase concentration in the eluates was measured by qPCR. Most Kds were determined using a compound top concentration=30,000 nM. […] Binding constants (Kds) were calculated with a standard dose-response curve using the Hill equation: Response=Background+{(Signal−Background)/[1+(Kd^Hill Slope/Dose^Hill Slope)]}, the Hill Slope was set to −1, and curves were fitted using a non-linear least square fit with the Levenberg-Marquardt algorithm.

[2] = system: phospho-p38 (downstream target of ASK1 activation) in HK-2 cells; experiment: HK-2 phospho-p38 HTRF assay (cellular IC50); format: cell-based; details: Homo sapiens, compound 2 h then 1 mM H2O2 30 min, phospho-T180/Y182 p38 HTRF, read-out: p38 MAPK IC50
Procedure: Monolayers of HK-2 cells were grown on 384-well plates at 8000 cells/well and incubated at 37° C. with 5% CO2/95% air in keratinocyte serum-free medium (Thermofisher, Carlsbad, Calif.) supplemented with recombinant human EGF (5 ng/mL) and bovine pituitary extract (50 μg/mL). 24 hours after seeding, cells were treated with test compounds for various concentrations for 2 hours and followed by 30 min treatment of H2O2 with final concentration of 1 mM. At the end of cell treatment, the cell medium was removed, and the cells were washed once with ice-cold PBS and subjected to measure the level of phosphor-p38 (downstream target of ASK1 activation) using Cisbio's P38 phospho-T180/Y182 HTRF kit from Cisbio (Cat. 64P38PEG). […] The compounds were then diluted directly into the assays such that the final concentration of DMSO was 0.4%. […] IC50 were calculated with a log (dose)-response curve using four parameter variable nonlinear fitting, with log(dose) in X-axis and (Em665/Em620×10000) ratio as Y-axis.

ASK1, sequence (Q99683 whole entry): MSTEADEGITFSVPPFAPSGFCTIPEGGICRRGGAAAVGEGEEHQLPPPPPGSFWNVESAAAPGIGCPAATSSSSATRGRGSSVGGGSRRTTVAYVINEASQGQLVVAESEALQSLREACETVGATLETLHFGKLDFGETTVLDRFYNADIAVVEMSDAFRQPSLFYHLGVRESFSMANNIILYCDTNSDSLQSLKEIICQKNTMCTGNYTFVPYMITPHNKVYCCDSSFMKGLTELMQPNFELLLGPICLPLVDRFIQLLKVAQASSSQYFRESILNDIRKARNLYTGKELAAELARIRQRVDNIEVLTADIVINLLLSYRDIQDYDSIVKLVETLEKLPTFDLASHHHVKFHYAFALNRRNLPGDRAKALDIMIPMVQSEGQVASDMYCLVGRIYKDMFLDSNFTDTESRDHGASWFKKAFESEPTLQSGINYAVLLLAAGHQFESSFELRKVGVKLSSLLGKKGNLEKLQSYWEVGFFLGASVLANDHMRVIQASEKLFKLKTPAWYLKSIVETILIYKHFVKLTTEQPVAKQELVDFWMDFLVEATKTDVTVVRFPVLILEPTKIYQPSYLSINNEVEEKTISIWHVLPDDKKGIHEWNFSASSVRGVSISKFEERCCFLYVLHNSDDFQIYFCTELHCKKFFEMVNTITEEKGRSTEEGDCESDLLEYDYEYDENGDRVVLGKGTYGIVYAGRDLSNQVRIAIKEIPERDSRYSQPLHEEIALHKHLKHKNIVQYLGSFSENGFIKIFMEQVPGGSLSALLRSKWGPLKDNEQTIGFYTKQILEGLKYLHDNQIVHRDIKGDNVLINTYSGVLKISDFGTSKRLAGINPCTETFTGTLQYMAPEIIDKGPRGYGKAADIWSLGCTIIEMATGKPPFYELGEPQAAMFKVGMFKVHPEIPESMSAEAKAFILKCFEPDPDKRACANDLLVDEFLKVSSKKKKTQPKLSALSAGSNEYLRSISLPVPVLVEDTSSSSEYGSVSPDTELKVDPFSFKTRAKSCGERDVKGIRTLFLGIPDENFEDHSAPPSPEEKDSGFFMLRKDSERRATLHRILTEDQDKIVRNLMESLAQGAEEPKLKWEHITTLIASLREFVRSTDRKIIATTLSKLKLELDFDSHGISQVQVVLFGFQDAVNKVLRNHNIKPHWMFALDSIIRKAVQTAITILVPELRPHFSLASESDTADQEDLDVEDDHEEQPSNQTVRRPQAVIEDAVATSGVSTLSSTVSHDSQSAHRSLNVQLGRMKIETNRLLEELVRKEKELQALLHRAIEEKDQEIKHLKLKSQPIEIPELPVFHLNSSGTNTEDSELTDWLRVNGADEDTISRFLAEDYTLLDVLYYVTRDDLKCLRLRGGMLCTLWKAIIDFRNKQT

SMILES	Kd [1] [nM]	IC50 [2] [nM]
O=C1Nc2cccc(n2)-c2nncn2CCCCCOc2ccc(-c3ccc(C4CC4)nc3)cc21 [Example 19]	10 to 100	100 to 1000
O=C1Nc2cccc(n2)-c2nncn2CCCCOc2ccc(-n3cnc(C4CC4)c3)cc21 [Example 22]	< 10	< 100
O=C1Nc2cccc(n2)-c2nncn2CCCCOc2ccc(-c3ccc(C4CC4)nc3)cc21 [Example 23]	< 10	100 to 1000
Cc1ccc(-c2ccc3c(c2)C(=O)Nc2cccc(n2)-c2nncn2CCCCO3)cn1 [Example 24]	< 10	< 100
CC1(C)Cc2cc3c(cc2O1)C(=O)Nc1cccc(n1)-c1nncn1CCCCO3 [Example 30]	< 10	< 100
O=C1Nc2cccc(n2)-c2nncn2CCCOc2ccc(-c3ccc(C4CC4)nc3)cc21 [Example 37]	< 10	< 100
O=C1Nc2cccc(n2)-c2nncn2CCCCOc2ccc(-c3ccccc3)cc21 [Example 38]	< 10	< 100
O=C1Nc2cccc(n2)-c2nncn2CCCCOc2ccc(-c3ccc(F)nc3)cc21 [Example 39]	< 10	< 100
O=C1Nc2cccc(n2)-c2nncn2CCCCOc2ccc(-c3ccc(C(F)(F)F)nc3)cc21 [Example 40]	< 10	< 100
O=C1Nc2cccc(n2)-c2nncn2CCCCOc2ccc(-c3ccsc3)cc21 [Example 42]	< 10	100 to 1000
O=C1Nc2cccc(n2)-c2nncn2CCCCOc2ccc(N3CCOCC3)cc21 [Example 43]		< 100

The remaining lines, values ahead:

Kd [1] [nM]	IC50 [2] [nM]	SMILES
< 10	100 to 1000	O=C1Nc2cccc(n2)-c2nncn2CCCCOc2ccc(C3CC3)cc21 [Example 46]
< 10	< 100	CCc1ccc(-c2ccc3c(c2)C(=O)Nc2cccc(n2)-c2nncn2CCCCO3)cn1 [Example 47]
	< 100	Cn1cc(-c2ccc3c(c2)C(=O)Nc2cccc(n2)-c2nncn2CCCCO3)cn1 [Example 48]
< 10	< 100	CC1CCCOc2ccc(-c3ccc(C4CC4)nc3)cc2C(=O)Nc2cccc(n2)-c2nncn21 (stereo not shown) [Example 50]
< 10	< 100	O=C1Nc2cccc(n2)-c2nncn2CCCCOc2ccc(-c3ccc(C(F)F)nc3)cc21 [Example 52]
< 10	< 100	O=C1Nc2cccc(n2)-c2nncn2CCCCOc2ccc(-c3ccc(Cl)nc3)cc21 [Example 54]
< 10	< 100	Cc1ccc(-c2ccc3c(c2)C(=O)Nc2cccc(n2)-c2nncn2C(C)CCCO3)cn1 (stereo not shown) [Example 56]
< 10	< 100	Cc1cc2c(cc1-n1cnc(C3CC3)c1)C(=O)Nc1cccc(n1)-c1nncn1CCCCO2 [Example 61]
< 10	100 to 1000	N#Cc1ccc(-c2ccc3c(c2)C(=O)Nc2cccc(n2)-c2nncn2CCCCO3)cn1 [Example 63]
< 10	100 to 1000	O=C1Nc2cccc(n2)-c2nncn2CCCOc2ccc(-n3cnc(C4CC4)c3)cc21 [Example 66]
< 10	< 100	Cc1ccc(-c2ccc3c(c2)C(=O)Nc2cccc(n2)-c2nncn2C(C)CCO3)cn1 (stereo not shown) [Example 67]
	< 100	Cc1ccc(-c2ccc3c(c2)C(=O)Nc2cccc(n2)-c2nncn2C2CC(CO3)C2)cn1 [Example 69]
< 10	< 100	Cc1ccc(-c2ccc3c(c2)C(=O)Nc2cccc(n2)-c2nncn2CCCOC3)cn1 [Example 70]
	< 100	Cc1ccc(-c2ccc3c(c2)C(=O)Nc2cccc(n2)-c2nncn2C2CCC(CC2)O3)cn1 [Example 71]

Reference: US11034671B2, “Apoptosis signal-regulating kinase inhibitors and uses thereof” (SICHUAN HAISCO PHARMACEUTICAL CO., LTD., priority 2017, dated 2021)
